In patent publication US10519177B2, “Heterocyclic compounds and uses thereof” (Plexxikon Inc., priority 2013, dated 2019):
pIC50: −log10 of the molar value. Read-outs that look alike come from different tables or passages of the source.

What was measured:
BRD4-BD1 (44-164) = BRD4-BD1 (44-164) (Homo sapiens (Human), UniProt O60885); assay: Alphascreen binding assay BRD4-BD1; conditions: BRD4(1) H4; read-out: Biochemical activity (IC50 μM) BRD4(1) H4
Protocol: Binding of compounds of formula (I) with bromodomain 2, 3 4 was assessed using Alphascreen binding assay. The inhibition of the interaction between bromodomain and its acetylated target protein (Filippakopoulos P et al. 2012) was measured quantitatively using recombinant BRD proteins, an acetylated Histone 4 peptide and AlphaScreen™ technology. In absence of inhibition the BRD protein bound to AlphaScreen™ nickel chelate acceptor beads can interact with the acetylated Histone 4 peptide which is immobilized by the AlphaScreen™ Streptavidin coated beads. This interaction brings donor and acceptor beads in proximity. The close proximity allows the singlet oxygen produced by laser excitation of the donor beads to reach the acceptor beads and generate a luminescence signal.
Recombinant human bromodomains containing the N-terminal bromodomain (BRD2-BD1 (71-194), BRD3-BD1 (24-144) and BRD4-BD1 (44-164)) or dual bromodomains (BRD4-BD12 (1-477), BRD4-BD12 (1-472)) were prepared and purified as described in protein expression and purification session. The peptide is human Histone H41-21K5AcK8AcK12AcK16Ac-Biotin (Anaspec CA, USA).
Protocol for BRD2, BRD3 and BRD4 assay: All components are prepared in buffer composed of 50 mM HEPES pH 7.5, 100 mM NaCl, 0.01% bovine serum albumin (“BSA”), 0.01% Triton X-100, 2 mM dithiothreitol (“DTT”). 7 μL of Bromodomain protein and 7 μL of peptide are added to wells containing 1 μL of various concentrations of test compounds of formula (I) or DMSO vehicle in an Alphaplate (PerkinElmer GA, USA) and incubated for 1 hour at room temperature. 4 μL donor and acceptor bead mixture is then added with final concentrations of 7.5 μg/ml. 30 minutes after bead addition, Alpha signal is read on the Envision spectrometer (λEx 680 nm, λEm 520-620 nm). Final concentrations of bromodomain proteins and peptide are as shown below.
All data was normalized to the mean of 16 high and 16 low control wells on each plate. A four parameter curve fit of the following formula was then applied: Y=a+(b−a)/(1+(x/c)^d) Where ‘a’ is the minimum, ‘b’ is the maximum, ‘c’ is the pIC50 and ‘d’ is the Hill slope. Protein Expression and Purification
Recombinant human bromodomains containing the N-terminal bromodomain (BRD2-BD1 (71-194), BRD3-BD1 (24-144) and BRD4-BD1 (44-164)) or dual bromodomains (BRD4-BD12 (1-477), BRD4-BD12 (1-472)) were expressed in E. coli cells (in a modified pET vector) with an N-terminal six-His tag and purified using a combination of both IMAC (Ni-affinity) and size exclusion chromatography steps.
Recombinant BRD proteins were expressed using the E. coli strain BL21-CodonPlus (DE3) (Agilent Technologies CA, USA). Cells were grown in Terrific Broth (TB) media to an OD600 of 1.2 at 37° C. at which temperature was reduced to 25° C., protein was induced with 1.0 mM ispropyl-β-D-thiogalactopyranoside (“IPTG”) for 12-18 hours and harvested by centrifugation at 8000×g for 20 minutes. Cells were re-suspended in 0.1M K2PO4 pH 8.0, 250 mM NaCl, 10% Glycerol, 0.75% NP-40, 25 mM Imidazole, 5 mM beta-mercaptoethanol (“BME”) with 0.2 mg/ml Lysosyme, 2.0 mM phenylmethanesulfonyl fluoride (“PMSF”), 25 μg/ml DNAse I, incubated on ice for 30 minutes and lyzed with a cell disruptor (MicroFluidics MA, USA). The lysate was clarified by centrifugation at 20,000×g for 2 hours. The protein was captured with Ni-NTA resin (Life Technologies, USA). Contaminating proteins were washed off with 25 mM Tris-HCl pH 8.3, 250 mM NaCl, 12% Glycerol and 50 mM Imidazole. Following 3× wash steps, protein was eluted step wise using a 50 mM HEPES pH 7.5, 500 mM NaCl and 400 mM Imidazole. The protein was further purified using Gel Filtration column 26/600 Superdex 200 (GE Biosciences NJ, USA) in 50 mM HEPES pH 7.5, 250 mM NaCl. The protein was aliquoted and flash-frozen in liquid Nitrogen.

BRD4-BD12 (1-477) = BRD4-BD12 (1-477) (Homo sapiens (Human), UniProt O60885); assay: Alphascreen binding assay BRD4-BD12; conditions: BRD4(1 2) H4; read-out: Biochemical activity (IC50 μM) BRD4(1 2) H4
Method in brief: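 First, compound was preincubated 1 h at room temperature with the His-tagged BRD4 protein (BD1 44-164 or tandem BD12 1-477) and acetylated H4 peptide. Next, donor and acceptor beads were added at 7.5 μg/ml final. After 30 min, AlphaScreen emission was recorded.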

MV-4-11 cells = assay: Oncology cell growth assay MV-4-11 (CellTiter Glo); type: cell-based; conditions: Homo sapiens, MV4-11, 72 h, read-out: Cell activity (IC50 μM) MV-4-11 3d-Growth
Method in brief: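 MV-4-11 AML cells (MLL-AF4), 3000 per well, exposed to 8-point 1:3 compound titration from 10 μM top concentration (0.2% DMSO) for 72 h. Viability by CellTiter Glo luminescence, normalized to DMSO controls; pIC50 from four-parameter curve fit.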

bromodomain = assay: at least one of the bromodomain cell assays of Example 57; type: cell-based; conditions: at least one of the bromodomain cell assays described in Example 57; read-out: IC50 in at least one of the bromodomain cell assays

Cc1noc(C)c1-c1cnc2[nH]cc(Sc3ccccc3)c2c1 [P-0144, 3,5-dimethyl-4-(3-phenylsulfanyl-1H-pyrrolo[2,3-b]pyridin-5-yl)isoxazole]
IC50 (BRD4-BD1 (44-164)): < 1 µM

C=CCn1cc(-c2cn(S(=O)(=O)C(C)CC)c3cc(-c4c(C)noc4C)cnc23)cn1 (centres unmarked) [P-0138, 4-[3-(1-allylpyrazol-4-yl)-1-sec-butyl-sulfonyl-pyrrolo[3,2-b]pyridin-6-yl]-3,5-dimethyl-isoxazole]
IC50 (BRD4-BD1 (44-164)): < 1 µM

Cc1noc(C)c1-c1cnc2c(C#CCO)cn(S(=O)(=O)C3CCCC3)c2c1 [P-0156, 3-[1-cyclopentylsulfonyl-6-(3,5-dimethylisoxazol-4-yl)pyrrolo[3,2-b]pyridin-3-yl]prop-2-yn-1-ol]
IC50 (BRD4-BD1 (44-164)): < 1 µM

Cc1noc(C)c1-c1cnc2[nH]cc(CC3CCS(=O)(=O)CC3)c2c1 [P-0098, 4-[[5-(3,5-dimethylisoxazol-4-yl)-1H-pyrrolo[2,3-b]pyridin-3-yl]methyl]thiane 1,1-dioxide]
IC50 (BRD4-BD1 (44-164)): < 1 µM

Cc1noc(C)c1-c1cnc2c(-c3cnn(CC(F)(F)F)c3)cn(S(=O)(=O)c3ccccc3)c2c1 [P-0146, 4-[1-(benzenesulfonyl)-3-[1-(2,2,2-trifluoroethyl)pyrazol-4-yl]pyrrolo[3,2-b]pyridin-6-yl]-3,5-dimethyl-isoxazole]
IC50 (BRD4-BD1 (44-164)): < 1 µM

CCn1cc(-c2cn(S(=O)(=O)c3ccccc3F)c3cc(-c4c(C)noc4C)cnc23)cn1 [P-0125, 4-[3-(1-ethylpyrazol-4-yl)-1-(2-fluorophenyl)sulfonyl-pyrrolo[3,2-b]pyridin-6-yl]-3,5-dimethyl-isoxazole]
IC50 (BRD4-BD1 (44-164)): < 1 µM

CCCS(=O)(=O)n1cc(-c2cnn(C)c2)c2ncc(-c3c(C)noc3C)cc21 [P-0111, 3,5-dimethyl-4-[3-(1-methylpyrazol-4-yl)-1-propylsulfonyl-pyrrolo[3,2-b]pyridin-6-yl]isoxazole]
IC50 (BRD4-BD1 (44-164)): < 1 µM

Cc1noc(C)c1-c1cnc2[nH]cc(C(O)c3ccc(OCC(F)(F)F)nc3)c2c1 (centres unmarked) [P-0012, [5-(3,5-dimethylisoxazol-4-yl)-1H-pyrrolo[2,3-b]pyridin-3-yl]-[6-(2,2,2-trifluoroethoxy)-3-pyridyl]methanol]
IC50 (BRD4-BD1 (44-164)): < 1 µM

CCCS(=O)(=O)n1cc(-c2cnn(CC(F)(F)F)c2)c2ncc(-c3c(C)noc3C)cc21 [P-0150, 3,5-dimethyl-4-[1-propylsulfonyl-3-[1-(2,2,2-trifluoroethyl)pyrazol-4-yl]pyrrolo[3,2-b]pyridin-6-yl]isoxazole]
IC50 (BRD4-BD1 (44-164)): < 1 µM

Cc1noc(C)c1-c1cnc2[nH]cc(Sc3cccc(F)c3)c2c1 [P-0141, 4-[3-(3-fluorophenyl)sulfanyl-1H-pyrrolo[2,3-b]pyridin-5-yl]-3,5-dimethyl-isoxazole]
IC50 (BRD4-BD1 (44-164)): < 1 µM

Cc1noc(C)c1-c1cnc2c(-c3cnn(C)c3)cn(S(=O)(=O)c3ccccc3)c2c1 [P-0110, 4-[1-(benzenesulfonyl)-3-(1-methylpyrazol-4-yl)pyrrolo[3,2-b]pyridin-6-yl]-3,5-dimethyl-isoxazole]
IC50 (BRD4-BD1 (44-164)): < 1 µM

CCc1[nH]c2ncc(-c3c(C)noc3C)cc2c1C(O)c1cccc(OC(F)(F)F)c1 (centres unmarked) [P-0043, [5-(3,5-dimethylisoxazol-4-yl)-2-ethyl-1H-pyrrolo[2,3-b]pyridin-3-yl]-[3-(trifluoromethoxy)phenyl]methanol]
IC50 (BRD4-BD1 (44-164)): < 1 µM

CCC(c1cn(C)c2ncc(-c3c(C)noc3C)cc12)C1CCC(F)(F)CC1 (centres unmarked) [P-0118, 4-[3-[1-(4,4-difluorocyclohexyl)propyl]-1-methyl-pyrrolo[2,3-b]pyridin-5-yl]-3,5-dimethyl-isoxazole]
IC50 (BRD4-BD1 (44-164)): < 1 µM

Cc1noc(C)c1-c1cnc2c(-c3cn[nH]c3)cn(C(C)c3ccccc3)c2c1 (centres unmarked) [P-0199, 3,5-dimethyl-4-[1-(1-phenyl-ethyl)-3-(1H-pyrazol-4-yl)pyrrolo[3,2-b]pyridin-6-yl]isoxazole]
IC50 (BRD4-BD1 (44-164)): < 1 µM

COc1ncc(-c2cnc3c(-c4cnn(CC(F)(F)F)c4)cn(CC4CCC(F)(F)CC4)c3c2)s1 [P-0452, 5-[1-[(4,4-difluorocyclohexyl)methyl]-3-[1-(2,2,2-trifluoroethyl)pyrazol-4-yl]pyrrolo[3,2-b]pyridin-6-yl]-2-methoxy-thiazole]
IC50 (BRD4-BD12 (1-477)): < 1 µM
IC50 (MV-4-11 cells; MV-4-11, 3d growth): 1 to 10 µM
pIC50 (bromodomain): > 5.00

Cc1noc(C)c1-c1cnc2c(-c3ccc(C(=O)NC4CC4)nc3)cn(CC3CCC(F)(F)CC3)c2c1 [P-0536, N-cyclopropyl-5-[1-[(4,4-difluorocyclohexyl)methyl]-6-(3,5-dimethylisoxazol-4-yl)pyrrolo[3,2-b]pyridin-3-yl]pyridine-2-carboxamide]
IC50 (BRD4-BD12 (1-477)): < 1 µM
IC50 (MV-4-11 cells; MV-4-11, 3d growth): < 1 µM
pIC50 (bromodomain): > 5.00

Cc1noc(C)c1-c1cnc2c(-c3ccc([N+](=O)[O-])nc3)cn(CC3CCCCC3)c2c1 [P-0710, 4-[1-(cyclohexylmethyl)-3-(6-nitro-3-pyridyl)pyrrolo[3,2-b]pyridin-6-yl]-3,5-dimethyl-isoxazole]
IC50 (BRD4-BD12 (1-477)): < 1 µM
IC50 (MV-4-11 cells; MV-4-11, 3d growth): < 1 µM
pIC50 (bromodomain): > 5.00

Cc1noc(C)c1-c1cnc2c(-c3cnc(N)cn3)cn(CC3CCC(F)(F)CC3)c2c1 [P-0399, 5-[1-[(4,4-difluorocyclohexyl)methyl]-6-(3,5-dimethylisoxazol-4-yl)pyrrolo[3,2-b]pyridin-3-yl]pyrazin-2-amine]
IC50 (BRD4-BD12 (1-477)): < 1 µM
IC50 (MV-4-11 cells): < 1 µM
pIC50 (bromodomain): > 5.00

Cc1ccc(-c2cn(CC3CCC(F)(F)CC3)c3cc(-c4c(C)noc4C)cnc23)cn1 [P-0397, 4-[1-[(4,4-difluorocyclohexyl)methyl]-3-(6-methyl-3-pyridyl)pyrrolo[3,2-b]pyridin-6-yl]-3,5-dimethyl-isoxazole]
IC50 (BRD4-BD12 (1-477)): < 1 µM
IC50 (MV-4-11 cells): < 1 µM
pIC50 (bromodomain): > 5.00

Nc1ncc(-c2cnc3c(-c4cnn(CC(F)(F)F)c4)cn(CC4CCC(F)(F)CC4)c3c2)cn1 [P-0451, 5-[1-[(4,4-difluorocyclohexyl)methyl]-3-[1-(2,2,2-trifluoroethyl)pyrazol-4-yl]pyrrolo[3,2-b]pyridin-6-yl]pyrimidin-2-amine]
IC50 (BRD4-BD12 (1-477)): 1 to 10 µM
IC50 (MV-4-11 cells; MV-4-11, 3d growth): 10 to 200 µM
pIC50 (bromodomain): > 5.00

Cc1noc(C)c1-c1cnc2c(c1)c(CC1CCC(F)(F)CC1)cn2-c1ccc(C(=O)O)cn1 [P-0430, 6-[3-[(4,4-difluorocyclohexyl)methyl]-5-(3,5-dimethylisoxazol-4-yl)pyrrolo[2,3-b]pyridin-1-yl]pyridine-3-carboxylic acid]
IC50 (BRD4-BD12 (1-477)): < 1 µM
IC50 (MV-4-11 cells; MV-4-11, 3d growth): < 1 µM
pIC50 (bromodomain): > 5.00
